Among the data in PubChem BioAssay (NCI) are GI50 and TGI values, retold here.

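These data come from cells grown in 96-well plates and exposed to compound for 48 hours at five concentrations. GI50 is the concentration that inhibits growth by half. TGI denotes the concentration required for complete inhibition of growth.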 Where only a bound is given, the exact number is not on record here.

Test systems include LOX IMVI melanoma; M14 melanoma; NCI-H226 lung; NCI-H460 lung; OVCAR-5 ovarian; SK-MEL-2 melanoma; SN12C renal; SW-620 colon; U251 CNS; UACC-257 melanoma.
Experiment in all cases: NCI tumour cell line growth inhibition, 48 h

Take `Oc1nc(N2CCOCC2)sc1/C=C1\C=Nc2ccccc21`: the GI50 in the experiment with LOX IMVI melanoma, in the experiment on M14 melanoma, with NCI-H226 lung, with NCI-H460 lung, in the experiment on OVCAR-5 ovarian and with SK-MEL-2 melanoma was > 100 µM each time. The GI50 in the experiment with SN12C renal, with SW-620 colon, in the experiment on U251 CNS and in the experiment with UACC-257 melanoma was > 100 µM throughout. Further, the TGI in the experiment with LOX IMVI melanoma, in the experiment with M14 melanoma, in the experiment on NCI-H226 lung, in the experiment on NCI-H460 lung, in the experiment with OVCAR-5 ovarian and in the experiment with SK-MEL-2 melanoma was > 100 µM throughout. For the same compound, the TGI with SN12C renal, in the experiment with SW-620 colon, with U251 CNS and with UACC-257 melanoma was > 100 µM each time.

With `Cn1cnc([N+](=O)[O-])c1Sc1n[nH]c(-c2ccc(Cl)cc2)n1`, the TGI in the experiment on LOX IMVI melanoma was determined as 30.1 µM; in the experiment on M14 melanoma it was 33.5 µM; in the experiment with NCI-H226 lung it was 34.5 µM; in the experiment with NCI-H460 lung, 53.6 µM; with OVCAR-5 ovarian it was 63.6 µM; with SK-MEL-2 melanoma it was 29.9 µM. Further, the TGI in the experiment on SN12C renal was determined as 31.6 µM; in the experiment with SW-620 colon it was 78 µM; in the experiment on U251 CNS, 48.9 µM; in the experiment with UACC-257 melanoma, 39.6 µM.

Turning to `O=C(Nc1ccc(Cl)c(C(F)(F)F)c1)Nc1ccc(-c2cccnc2)cc1N1CCC(CO)CC1`, the GI50 in the experiment on LOX IMVI melanoma was 1.92 µM; in the experiment with M14 melanoma, 1.93 µM; with NCI-H226 lung it was 2.68 µM; in the experiment on NCI-H460 lung, 2.32 µM; in the experiment on OVCAR-5 ovarian, 2.96 µM; in the experiment on SK-MEL-2 melanoma, 1.86 µM. Moreover, the GI50 with SN12C renal was 3.46 µM; in the experiment with SW-620 colon, 2.76 µM; with U251 CNS it was 2.41 µM; with UACC-257 melanoma it was 3.47 µM. Moreover, the TGI was 3.66 µM with LOX IMVI melanoma; 4.85 µM in the experiment on M14 melanoma; 9.79 µM with NCI-H226 lung; 6.24 µM in the experiment with NCI-H460 lung; > 100 µM in the experiment on OVCAR-5 ovarian; 4.34 µM in the experiment with SK-MEL-2 melanoma. Also, the TGI was determined as 19 µM with SN12C renal, 27.2 µM with SW-620 colon, 7.1 µM in the experiment with U251 CNS and 9.82 µM in the experiment on UACC-257 melanoma.

As for `CCCCCCCCCCCCCCCCc1c(C(=O)OC)nc(NC#N)[nH]c1=O`, the TGI in the experiment with LOX IMVI melanoma, in the experiment on M14 melanoma, in the experiment with NCI-H226 lung, with NCI-H460 lung, in the experiment with OVCAR-5 ovarian and in the experiment on SK-MEL-2 melanoma was > 25 µM throughout. The TGI in the experiment with SN12C renal, in the experiment on SW-620 colon, in the experiment on U251 CNS and with UACC-257 melanoma was > 25 µM throughout.

Turning to `OCc1ccc(-c2nc(-c3ccc4c(c3)OCO4)c(-c3ccccn3)[nH]2)cc1`, the GI50 in the experiment with LOX IMVI melanoma was 19 µM; with M14 melanoma, > 25 µM; in the experiment with NCI-H226 lung, > 25 µM; in the experiment with NCI-H460 lung, > 20.9 µM; with OVCAR-5 ovarian, > 22.8 µM; with SK-MEL-2 melanoma, > 25 µM. Besides, the GI50 in the experiment on SN12C renal, in the experiment on SW-620 colon, in the experiment on U251 CNS and with UACC-257 melanoma was > 25 µM each time. Further, the TGI in the experiment on LOX IMVI melanoma, in the experiment with M14 melanoma, with NCI-H226 lung, with NCI-H460 lung, in the experiment on OVCAR-5 ovarian and in the experiment on SK-MEL-2 melanoma was > 25 µM each time. For the same compound, the TGI in the experiment on SN12C renal, with SW-620 colon, in the experiment on U251 CNS and in the experiment with UACC-257 melanoma was > 25 µM throughout.

With `CN(C)CC1(C)CC/C(=C\c2ccc(Cl)cc2)C1=O` (stereo not given), the TGI is 82.1 µM with LOX IMVI melanoma; > 100 µM in the experiment with M14 melanoma; > 100 µM in the experiment with NCI-H226 lung; 54.6 µM with NCI-H460 lung; > 100 µM with OVCAR-5 ovarian; > 100 µM in the experiment on SK-MEL-2 melanoma. Besides, the TGI with SN12C renal is > 100 µM; in the experiment on SW-620 colon, 35.5 µM; in the experiment with U251 CNS, > 100 µM; in the experiment with UACC-257 melanoma, > 100 µM.

For `ClCc1ccccc1Cn1cnc2nc(Cl)nc(Cl)c21`, the GI50 with LOX IMVI melanoma was 0.137 µM; in the experiment on M14 melanoma it was 0.851 µM; with NCI-H226 lung, 1.18 µM; with NCI-H460 lung it was 2.09 µM; with OVCAR-5 ovarian, 1.71 µM; in the experiment with SK-MEL-2 melanoma, 1.89 µM. Further, the GI50 was 1.17 µM in the experiment on SN12C renal, 0.266 µM in the experiment with SW-620 colon, 0.414 µM with U251 CNS and 1.6 µM in the experiment with UACC-257 melanoma. For the same compound, the TGI is 0.301 µM with LOX IMVI melanoma; 2.46 µM in the experiment with M14 melanoma; 9.52 µM in the experiment on NCI-H226 lung; > 24.3 µM in the experiment on NCI-H460 lung; 3.65 µM in the experiment on OVCAR-5 ovarian; 8.59 µM in the experiment on SK-MEL-2 melanoma. The TGI with SN12C renal amounted to 2.56 µM; in the experiment with SW-620 colon, 0.682 µM; with U251 CNS, 1.47 µM; in the experiment with UACC-257 melanoma, 5.22 µM.

For the compound `Nc1nc(-c2cccnc2)cc(-c2cc(-c3cccnc3)nc(N)n2)n1`, the TGI in the experiment on LOX IMVI melanoma, in the experiment with M14 melanoma, with NCI-H226 lung, in the experiment on NCI-H460 lung, in the experiment with OVCAR-5 ovarian and with SK-MEL-2 melanoma was > 100 µM throughout. Moreover, the TGI with SN12C renal, with SW-620 colon, in the experiment with U251 CNS and in the experiment on UACC-257 melanoma was > 100 µM throughout.

For `O=C1CN=C(c2ccc[nH]2)c2cc(Cl)ccc2N1`, the GI50 with LOX IMVI melanoma is 17.9 µM; in the experiment with M14 melanoma it was > 100 µM; with NCI-H226 lung, > 100 µM; with NCI-H460 lung it was 4.38 µM; in the experiment with OVCAR-5 ovarian, > 100 µM; in the experiment on SK-MEL-2 melanoma it was > 100 µM. Moreover, the GI50 was > 100 µM in the experiment with SN12C renal, > 100 µM with SW-620 colon, 71.8 µM in the experiment with U251 CNS and > 100 µM in the experiment on UACC-257 melanoma. In addition, the TGI in the experiment on LOX IMVI melanoma, in the experiment with M14 melanoma, in the experiment with NCI-H226 lung, with NCI-H460 lung, with OVCAR-5 ovarian and in the experiment on SK-MEL-2 melanoma was > 100 µM throughout. Besides, the TGI with SN12C renal, in the experiment on SW-620 colon, in the experiment with U251 CNS and with UACC-257 melanoma was > 100 µM in each case.
